Measured values from patent US10065990B2, “Cyclic peptide compound, and preparation method, pharmaceutical composition and use thereof” (HANGZHOU GUANYU BIO-MEDICAL CO., LTD, priority 2013, dated 2018).

Assays:
HDAC7 = molecular target: T1, HDAC7 (Homo sapiens, UniProt Q8WUI4); experiment: HDAC biochemical activity measurement (fluorescent substrate deacetylation);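 further: fluorogenic deacetylation assay using acetyl-lysine substrate at 20 µM, enzyme and compound incubated 30 min at 37 °C, then developer added, fluorescence read at 360/460 nm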; conditions: HDAC7; 37° C. 30 minutes
T1 sequence (Q8WUI4 1-952): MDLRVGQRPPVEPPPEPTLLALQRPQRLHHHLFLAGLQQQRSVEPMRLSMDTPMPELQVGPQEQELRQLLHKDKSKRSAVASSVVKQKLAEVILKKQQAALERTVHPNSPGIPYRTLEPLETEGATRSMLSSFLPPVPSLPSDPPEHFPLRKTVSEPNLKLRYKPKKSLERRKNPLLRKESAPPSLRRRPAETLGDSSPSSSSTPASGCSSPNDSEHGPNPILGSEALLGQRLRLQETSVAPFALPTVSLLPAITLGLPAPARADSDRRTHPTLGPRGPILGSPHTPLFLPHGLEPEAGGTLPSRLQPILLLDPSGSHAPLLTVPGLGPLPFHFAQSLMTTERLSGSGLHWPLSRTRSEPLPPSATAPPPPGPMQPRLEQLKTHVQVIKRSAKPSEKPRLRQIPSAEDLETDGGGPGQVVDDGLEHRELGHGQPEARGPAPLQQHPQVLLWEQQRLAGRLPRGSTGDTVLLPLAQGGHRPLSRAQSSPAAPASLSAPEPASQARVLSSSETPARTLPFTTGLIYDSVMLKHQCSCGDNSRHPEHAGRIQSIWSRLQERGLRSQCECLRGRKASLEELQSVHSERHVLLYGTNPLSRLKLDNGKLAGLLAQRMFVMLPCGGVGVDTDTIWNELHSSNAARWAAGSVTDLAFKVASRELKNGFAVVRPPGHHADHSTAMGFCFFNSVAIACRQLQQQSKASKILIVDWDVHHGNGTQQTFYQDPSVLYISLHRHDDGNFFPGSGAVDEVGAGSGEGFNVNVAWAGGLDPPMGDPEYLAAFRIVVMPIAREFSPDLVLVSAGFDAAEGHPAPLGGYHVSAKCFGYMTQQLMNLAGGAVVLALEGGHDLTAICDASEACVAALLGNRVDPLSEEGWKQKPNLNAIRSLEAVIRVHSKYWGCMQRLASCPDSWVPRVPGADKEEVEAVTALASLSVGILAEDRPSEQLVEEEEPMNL

[1] = system: N-87 (human gastric cancer cells); experiment: MTT cancer cell growth inhibition; assay type: cell-based; conditions: Homo sapiens, 72 h, MTT, 72 hours incubation, N-87 cells; read-out: GI50 N-87
Summary of the method: (§1)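 GI50 values come from MTT viability: after 72 h compound exposure (final 10^−5–10^−10 M, three wells each) of cells plated overnight at 1500/well in 10% FBS medium, MTT was given for 4 h. The DMSO-solubilised formazan was then measured at 570 nm.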

[2] = system: Hela (human cervical cancer cells); experiment: MTT cancer cell growth inhibition; assay type: cell-based; conditions: Homo sapiens, HeLa, 72 h, Hela cells, MTT, 72 hours incubation; read-out: GI50 Hela
Summary of the method: as §1

[3] = system: MOLT-4 (human acute lymphoblastic leukemia cells); experiment: MTT cancer cell growth inhibition; assay type: cell-based; conditions: Homo sapiens, MOLT-4, 72 h, MOLT-4 cells, MTT, 72 hours incubation; read-out: GI50 Mol
Summary of the method: as §1

[4] = system: DU145 (human prostate cancer cells); experiment: MTT cancer cell growth inhibition; assay type: cell-based; conditions: Homo sapiens, DU-145, 72 h, DU145 cells, MTT, 72 hours incubation; read-out: GI50 Du1
Summary of the method: as §1

[5] = system: U937 (human leukemia cells); experiment: MTT cancer cell growth inhibition; assay type: cell-based; conditions: Homo sapiens, U-937, 72 h, U937 cells, MTT, 72 hours incubation; read-out: GI50 U93
Summary of the method: as §1

[6] = system: A549 (human lung cancer cells); experiment: MTT cancer cell growth inhibition; assay type: cell-based; conditions: Homo sapiens, A549, 72 h, A549 cells, MTT, 72 hours incubation; read-out: GI50 A54
Summary of the method: as §1

[7] = system: lncap (prostate cancer cells); experiment: MTT cancer cell growth inhibition; assay type: cell-based; conditions: Homo sapiens, LNCaP, 72 h, lncap cells, MTT, 72 hours incubation; read-out: GI50 lnca
Summary of the method: as §1

[8] = system: Huh-7 (human hepatoma cells); experiment: MTT cancer cell growth inhibition; assay type: cell-based; conditions: Homo sapiens, Huh-7, 72 h, MTT, 72 hours incubation, Huh-7 cells; read-out: GI50 Huh-7
Summary of the method: as §1

[9] = system: KBM-5 (human chronic myelogenous leukemia); experiment: MTT cancer cell growth inhibition; assay type: cell-based; conditions: Homo sapiens, KBM5, 72 h, MTT, 72 hours incubation, KBM-5 cells; read-out: GI50 KBM-5
Summary of the method: as §1

[10] = system: HT1080 (human fibrosarcoma cells); experiment: MTT cancer cell growth inhibition; assay type: cell-based; conditions: Homo sapiens, HT-1080, 72 h, HT1080 cells, MTT, 72 hours incubation; read-out: GI50 HT1
Summary of the method: as §1

[11] = system: HCC827 (human non-small cell lung cancer cells); experiment: MTT cancer cell growth inhibition; assay type: cell-based; conditions: Homo sapiens, HCC827, 72 h, MTT, 72 hours incubation, HCC827 cells; read-out: GI50 HCC827
Summary of the method: as §1

[12] = system: MDA-MB-231 (breast cancer cells); experiment: MTT cancer cell growth inhibition; assay type: cell-based; conditions: Homo sapiens, MDA-MB-231, 72 h, read-out: GI50 MDA-MB-231, MTT, 72 hours incubation, MDA-MB-231 cells
Summary of the method: as §1

[13] = system: Bel-7402 (human hepatoma cells); experiment: MTT cancer cell growth inhibition; assay type: cell-based; conditions: Homo sapiens, Bel-7402, 72 h, MTT, 72 hours incubation, Bel-7402 cells; read-out: GI50 Bel-7402
Summary of the method: as §1

[14] = system: MCF-7 (human breast cancer cells); experiment: MTT cancer cell growth inhibition; assay type: cell-based; conditions: Homo sapiens, MCF7, 72 h, MCF-7 cells, 72 hours incubation, read-out: GI50 MCF
Summary of the method: as §1

[15] = system: K562 (human leukemia cells); experiment: MTT cancer cell growth inhibition; assay type: cell-based; conditions: Homo sapiens, K562, 72 h, MTT, 72 hours incubation, K562 cells; read-out: GI50 K562
Summary of the method: as §1

[16] = system: PANC-1 (Pac-1, human pancreatic cancer cells); experiment: MTT cancer cell growth inhibition; assay type: cell-based; conditions: Homo sapiens, PANC-1, 72 h, PANC-1 cells, MTT, 72 hours incubation; read-out: GI50 PAN
Summary of the method: as §1

[17] = system: SGC-7901 (human gastric cancer cells); experiment: MTT cancer cell growth inhibition; assay type: cell-based; conditions: Homo sapiens, SGC-7901, 72 h, MTT, 72 hours incubation, SGC-7901 cells; read-out: GI50 SGC-7901
Summary of the method: as §1

[18] = system: KBM5-T315I (human chronic myelogenous leukemia); experiment: MTT cancer cell growth inhibition; assay type: cell-based; conditions: Homo sapiens, 72 h, MTT, 72 hours incubation, KBM5-T315I cells; read-out: GI50 KBM5-T315I
Summary of the method: as §1

[19] = system: H1975 (non-small cell lung adenocarcinoma); experiment: MTT cancer cell growth inhibition; assay type: cell-based; conditions: Homo sapiens, NCI-H1975, 72 h, MTT, 72 hours incubation, H1975 cells; read-out: GI50 H1975
Summary of the method: as §1

[20] = system: BGC-823 (human gastric cancer cells); experiment: MTT cancer cell growth inhibition; assay type: cell-based; conditions: Homo sapiens, BGC-823, 72 h, BGC-823 cells, MTT, 72 hours incubation; read-out: GI50 BG
Summary of the method: as §1

| Structure (SMILES) | IC50 HDAC7 (HDAC7) | GI50 [1] [nM] | GI50 [2] [nM] | GI50 [3] [nM] | GI50 [4] [nM] | GI50 [5] [nM] | GI50 [6] [nM] | GI50 [7] [nM] | GI50 [8] [nM] | GI50 [9] [nM] | GI50 [10] [nM] | GI50 [11] [nM] | GI50 [12] [nM] | GI50 [13] [nM] | GI50 [14] [nM] | GI50 [15] [nM] | GI50 [16] [nM] | GI50 [17] [nM] | GI50 [18] [nM] | GI50 [19] [nM] | also measured |
| --- | --- | --- | --- | --- | --- | --- | --- | --- | --- | --- | --- | --- | --- | --- | --- | --- | --- | --- | --- | --- | --- |
| C/C=C1\NC(=O)c2ncc(SC)c(n2)CNC(=O)C[C@@H](/C=C/CCSC(C)=O)OC(=O)[C@H](C)NC1=O [Compound 219] | no activity | 75 | 90 | 80 | 50 | 70 | 30 | 60 | 49 | 42 | 70 | 39 | 34 | 82 | 60 | 84 | 80 | 63 | 39 | 33 | GI50 [20]: 50 nM |
| C/C=C1\NC(=O)c2nc(ccc2SC)CNC(=O)C[C@@H](/C=C/CCSC(C)=O)OC(=O)[C@@H](C)NC1=O [Compound 220] | no activity | 46 | 30 | 50 | 30 | 80 | 40 | 60 | 53 | 83 | 80 | 26 | 45 | 55 | 20 | 83 | 30 | 28 | 33 | 57 | GI50 [20]: 30 nM |
| C/C=C1\NC(=O)c2cc(SC)cc(n2)CNC(=O)C[C@@H](/C=C/CCSC(C)=O)OC(=O)[C@@H](C)NC1=O [Compound 221] | no activity | 65 | 30 | 70 | 50 | 70 | 20 | 20 | 41 | 36 | 80 | 41 | 43 | 57 | 80 | 74 | 50 | 26 | 41 | 35 | GI50 [20]: 50 nM |
| C/C=C1\NC(=O)c2ccc(SC)c(n2)CNC(=O)C[C@@H](/C=C/CCSC(C)=O)OC(=O)[C@@H](C)NC1=O [Compound 222] | no activity | 98 | 20 | 30 | 30 | 80 | 50 | 60 | 39 | 43 | 70 | 63 | 52 | 14 | 70 | 83 | 30 | 47 | 35 | 83 | GI50 [20]: 40 nM |
| C/C=C1\NC(=O)c2nc(ccc2SC)CCNC(=O)C[C@@H](/C=C/CCSC(C)=O)OC(=O)[C@H](C(C)C)NC1=O [Compound 223] | no activity | 75 | 50 | 50 | 60 | 20 | 20 | 10 | 54 | 53 | 80 | 27 | 35 | 32 | 40 | 55 | 50 | 96 | 28 | 19 | GI50 [20]: 30 nM |
| C/C=C1\NC(=O)c2ccc(SC)c(n2)CCNC(=O)C[C@@H](/C=C/CCSC(C)=O)OC(=O)[C@H](C(C)C)NC1=O [Compound 225] | no activity | 38 | 70 | 60 | 20 | 30 | 40 | 20 | 59 | 33 | 20 | 13 | 71 | 72 | 30 | 81 | 30 | 41 | 38 | 29 | GI50 [20]: 40 nM |
| C/C=C1\NC(=O)c2nc(ccc2SC)CNC(=O)C[C@@H](/C=C/CCS)OC(=O)[C@H](C(C)C)NC1=O [Compound 226] | no activity | 35 | 90 | 30 | 30 | 40 | 60 | 30 | 68 | 75 | 20 | 33 | 34 | 31 | 20 | 61 | 20 | 23 | 65 | 37 | GI50 [20]: 50 nM |
| C/C=C1\NC(=O)c2cc(SC)cc(n2)CNC(=O)C[C@@H](/C=C/CCS)OC(=O)[C@H](C(C)C)NC1=O [Compound 227] | no activity | 19 | 70 | 60 | 60 | 40 | 20 | 20 | 17 | 49 | 70 | 45 | 51 | 72 | 20 | 23 | 10 | 53 | 55 | 35 | GI50 [20]: 50 nM |
